These results are taken from ChEMBL document CHEMBL5726860, “Phthalazinones and isoquinolinones as rock inhibitors” (2018).

Usually IC50 stands for the concentration that inhibits the measured activity by half.

Where only a bound is given, the exact number is not on record here.

The target in one assay is Rho-associated protein kinase 2 (Homo sapiens, UniProt O75116). Kind of assay: (§1) In Vitro Assay: The effectiveness of compounds of the present invention as ROCK inhibitors can be determined in a 30 μL assay containing 20 mM HEPES, pH 7.5, 20 mM MgCl2, 0.015% Brij-35, 4 mM DTT, 5 μM ATP and 1.5 μM peptide substrate (FITC-AHA-[…]-OH). Compounds were dissolved in DMSO so that the final concentration of DMSO was <2%, and the reaction was initiated with Rho kinase variants. After incubation, the reaction was terminated by the addition of EDTA and the phosphorylated and non-phosphorylated peptides separated using a LABCHIP® 3000 Reader (Caliper Life Sciences). […] Compounds were tested in dose-response format, and the inhibition of kinase activity was calculated at each concentration of compound. The inhibition data were fit using a curve-fitting program to determine the IC50; i.e., the concentration of compound required to inhibit 50% of kinase activity.
Sequence of Rho-associated protein kinase 2 (O75116 whole entry, looked up, change not shown): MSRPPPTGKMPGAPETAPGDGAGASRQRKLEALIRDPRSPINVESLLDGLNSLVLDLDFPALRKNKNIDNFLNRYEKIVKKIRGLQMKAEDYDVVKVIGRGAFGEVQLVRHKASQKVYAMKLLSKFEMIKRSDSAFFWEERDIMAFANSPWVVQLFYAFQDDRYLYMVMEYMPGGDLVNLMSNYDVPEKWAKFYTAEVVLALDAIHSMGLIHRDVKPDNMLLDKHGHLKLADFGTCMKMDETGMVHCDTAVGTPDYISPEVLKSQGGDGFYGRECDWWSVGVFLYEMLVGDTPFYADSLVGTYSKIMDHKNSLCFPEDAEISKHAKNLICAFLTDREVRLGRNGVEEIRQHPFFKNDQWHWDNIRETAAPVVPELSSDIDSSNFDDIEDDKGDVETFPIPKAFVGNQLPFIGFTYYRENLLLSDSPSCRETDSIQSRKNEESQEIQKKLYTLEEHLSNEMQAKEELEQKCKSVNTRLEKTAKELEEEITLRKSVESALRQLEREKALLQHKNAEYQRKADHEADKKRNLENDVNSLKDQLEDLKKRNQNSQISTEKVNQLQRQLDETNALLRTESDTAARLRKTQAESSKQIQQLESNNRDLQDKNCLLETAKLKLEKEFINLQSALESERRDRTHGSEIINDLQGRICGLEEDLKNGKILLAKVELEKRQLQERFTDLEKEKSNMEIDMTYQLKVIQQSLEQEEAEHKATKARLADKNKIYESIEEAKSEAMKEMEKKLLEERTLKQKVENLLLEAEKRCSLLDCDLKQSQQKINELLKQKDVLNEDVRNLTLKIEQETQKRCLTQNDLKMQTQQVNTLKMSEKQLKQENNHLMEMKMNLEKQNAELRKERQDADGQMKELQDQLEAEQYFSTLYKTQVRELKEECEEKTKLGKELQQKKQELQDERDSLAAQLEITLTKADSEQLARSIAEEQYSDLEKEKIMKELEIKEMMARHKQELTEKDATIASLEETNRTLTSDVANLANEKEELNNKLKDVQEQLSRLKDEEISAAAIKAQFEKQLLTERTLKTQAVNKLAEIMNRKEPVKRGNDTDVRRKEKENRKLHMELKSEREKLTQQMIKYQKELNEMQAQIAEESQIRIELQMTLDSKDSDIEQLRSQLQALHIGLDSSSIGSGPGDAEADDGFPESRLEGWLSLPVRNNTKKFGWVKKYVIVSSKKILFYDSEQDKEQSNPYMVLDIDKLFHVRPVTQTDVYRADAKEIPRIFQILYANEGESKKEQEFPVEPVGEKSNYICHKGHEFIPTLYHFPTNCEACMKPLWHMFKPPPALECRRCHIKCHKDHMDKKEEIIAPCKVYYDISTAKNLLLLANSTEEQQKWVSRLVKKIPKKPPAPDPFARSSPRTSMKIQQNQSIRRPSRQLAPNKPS
In the case of `O=C(Nc1ccc(-c2n[nH]c(=O)c3ccccc23)cc1)c1cnn(C2CCS(=O)(=O)C2)c1` (stereo not drawn), the concentration for half-maximal inhibition (IC50) is less than 100 nM. In the case of `O=C(Nc1ccc(-c2n[nH]c(=O)c3ccccc23)cc1)c1cnn(CC(F)(F)F)c1`, the IC50 was less than 100 nM. On the same count and under the same terms, next, `CCCn1cc(C(=O)Nc2ccc(-c3n[nH]c(=O)c4ccccc34)cc2)cn1`: less than 100 nM; `O=C(Nc1ccc(-c2n[nH]c(=O)c3ccccc23)cc1)c1cc2ncccn2n1`: less than 100 nM.

For the compound `O=C(Nc1ccc(-c2n[nH]c(=O)c3ccccc23)cc1)c1cnn(CC(F)(F)C(F)F)c1`, the IC50 was less than 100 nM. The same measure, in the same setting: next, `O=C(Nc1ccc(-c2n[nH]c(=O)c3ccccc23)cc1)c1cnn(C2CCCC2)c1`: less than 100 nM; `O=C(Nc1ccc(-c2n[nH]c(=O)c3ccccc23)c(Cl)c1)c1nn(CC2CNC2)c2ccccc12`: less than 100 nM; `O=C(Cc1ccc(-c2c[nH]c(=O)c3ccccc23)c(F)c1)N1Cc2ccccc2C1`: less than 100 nM. As to `O=C(Nc1ccc(-c2n[nH]c(=O)c3ccccc23)cc1)c1cn2ccnc(Cl)c2n1`, the IC50 is less than 100 nM.

With `O=C(Nc1ccc(-c2n[nH]c(=O)c3ccccc23)cc1)c1c[nH]c2ncc(F)cc12`, the IC50 is less than 100 nM. Still for that read-out and setting: next, `Cc1ccc2oc(Nc3ccc(-c4n[nH]c(=O)c5ccccc45)cc3)nc2c1`: less than 100 nM. On the same count and under the same terms, next, `O=C(Nc1ccc(-c2n[nH]c(=O)c3ccccc23)cc1)c1nn(CC2CCNCC2)c2ccccc12`: less than 100 nM. Take `CC(O)Cn1cc(C(=O)Nc2ccc(-c3n[nH]c(=O)c4ccccc34)cc2)cn1` (stereo not drawn): the IC50 is less than 100 nM.

Take `O=C(Nc1ccc(-c2n[nH]c(=O)c3ccccc23)cc1)c1cnn(CC(O)C(F)(F)F)c1` (stereo not drawn): the IC50 is less than 100 nM. Still for that read-out and setting: next, `O=C(Nc1ccc(-c2c[nH]c(=O)c3ccccc23)cc1)c1ccc(N2CCOCC2)cc1`: less than 100 nM; `O=C(Nc1ccc(-c2n[nH]c(=O)c3ccccc23)c(CO)c1)c1nn(CCC2CCOCC2)c2ccccc12`: less than 100 nM; `O=C(Nc1ccc(-c2n[nH]c(=O)c3ccccc23)cc1)c1cn[nH]c1`: less than 100 nM. Same read-out and setting: next, `O=c1[nH]nc(-c2ccc(Nc3nnc(-c4ccccc4)s3)cc2)c2ccccc12`: less than 100 nM; `O=C(Nc1ccc(-c2n[nH]c(=O)c3ccccc23)cc1)c1cnn2ccc(OCCO)cc12`: less than 100 nM. On the same count and under the same terms, next, `O=C(Nc1ccc(-c2n[nH]c(=O)c3ccccc23)cc1)c1cnn(C2CCCCC2)c1`: less than 100 nM; `CCc1c(C(=O)Nc2ccc(-c3n[nH]c(=O)c4ccccc34)cc2)nnn1-c1cccc(Cl)c1`: less than 100 nM; `O=C(Nc1ccc(-c2n[nH]c(=O)c3ccccc23)cc1)c1cnn(CC2CC2)c1`: less than 100 nM.

The target in a further assay is Rho-associated protein kinase 1 (Homo sapiens, UniProt Q13464). The description is as §1.
Sequence of Rho-associated protein kinase 1 (Q13464 2-1354 limits assumed, change not shown): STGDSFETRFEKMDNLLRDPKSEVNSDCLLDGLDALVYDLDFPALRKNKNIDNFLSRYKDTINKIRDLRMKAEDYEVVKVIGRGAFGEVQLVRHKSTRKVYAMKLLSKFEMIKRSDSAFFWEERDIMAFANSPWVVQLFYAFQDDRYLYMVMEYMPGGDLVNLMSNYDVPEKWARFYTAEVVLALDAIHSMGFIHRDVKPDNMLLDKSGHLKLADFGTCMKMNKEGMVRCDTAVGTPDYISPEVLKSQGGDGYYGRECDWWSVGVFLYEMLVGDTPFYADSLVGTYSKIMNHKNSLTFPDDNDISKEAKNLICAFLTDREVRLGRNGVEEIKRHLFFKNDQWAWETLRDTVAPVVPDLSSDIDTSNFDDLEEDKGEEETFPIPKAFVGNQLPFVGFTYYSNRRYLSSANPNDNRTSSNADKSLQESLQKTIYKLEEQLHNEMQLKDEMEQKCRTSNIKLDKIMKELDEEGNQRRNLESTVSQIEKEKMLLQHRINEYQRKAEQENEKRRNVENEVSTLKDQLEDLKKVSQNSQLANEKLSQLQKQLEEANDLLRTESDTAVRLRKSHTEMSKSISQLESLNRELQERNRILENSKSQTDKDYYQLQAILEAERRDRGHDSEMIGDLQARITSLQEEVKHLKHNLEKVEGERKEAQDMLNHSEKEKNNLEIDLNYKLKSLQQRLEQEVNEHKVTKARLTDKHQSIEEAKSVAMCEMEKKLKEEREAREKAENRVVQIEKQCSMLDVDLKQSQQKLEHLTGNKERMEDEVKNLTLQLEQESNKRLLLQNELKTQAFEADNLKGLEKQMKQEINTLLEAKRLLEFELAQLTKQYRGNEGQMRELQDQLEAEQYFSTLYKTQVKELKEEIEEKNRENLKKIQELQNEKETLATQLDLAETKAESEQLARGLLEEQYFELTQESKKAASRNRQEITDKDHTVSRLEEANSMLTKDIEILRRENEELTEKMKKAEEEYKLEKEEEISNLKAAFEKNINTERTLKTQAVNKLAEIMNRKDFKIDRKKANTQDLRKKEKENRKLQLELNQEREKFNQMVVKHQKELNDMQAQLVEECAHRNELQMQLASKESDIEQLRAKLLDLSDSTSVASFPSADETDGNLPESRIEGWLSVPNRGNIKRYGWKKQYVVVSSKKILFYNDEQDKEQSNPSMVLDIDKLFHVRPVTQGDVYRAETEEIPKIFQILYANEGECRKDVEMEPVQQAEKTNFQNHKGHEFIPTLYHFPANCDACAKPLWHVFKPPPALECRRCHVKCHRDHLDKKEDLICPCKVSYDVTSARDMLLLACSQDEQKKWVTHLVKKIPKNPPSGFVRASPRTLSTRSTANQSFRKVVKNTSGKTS
Turning to `O=C(Oc1ccc(-c2n[nH]c(=O)c3ccccc23)cc1)N1Cc2ccccc2C1`, the half-maximal inhibitory concentration (IC50) entry is “in the range around 550 nM”.
